According to ChEMBL document CHEMBL5247597, “Enantioselective semisynthesis of novel cephalotaxine esters with potent antineoplastic activities against leukemia” (Eur J Med Chem, 2022):
The source made the active and inactive calls. The calls are words filed in the database; no cut-off is given here.

Assays:
[1] = system: U-937; experiment: Antiproliferative activity against human U-937 cells assessed as inhibition of cell growth measured after 72 hrs by CCK8 assay; type: functional, cell-based; settings: U-937, 72 h
[2] = system: K562; experiment: Antiproliferative activity against human K562 cells assessed as inhibition of cell growth measured after 72 hrs by CCK8 assay; type: functional, cell-based; settings: K562, 72 h
[3] = system: HL-60; experiment: Antiproliferative activity against human HL-60 cells assessed as inhibition of cell growth measured after 72 hrs by CCK8 assay; type: functional, cell-based; settings: HL-60, 72 h
[4] = system: NCI-H1975; experiment: Antiproliferative activity against human NCI-H1975 cells assessed as inhibition of cell growth measured after 72 hrs by CCK8 assay; type: functional, cell-based; settings: NCI-H1975, 72 h
[5] = system: A204; experiment: Antiproliferative activity against human A204 cells assessed as inhibition of cell growth measured after 72 hrs by CCK8 assay; type: functional, cell-based; settings: A204, 72 h
[6] = system: NCI-H716; experiment: Antiproliferative activity against human NCI-H716 cells assessed as inhibition of cell growth measured after 72 hrs by CCK8 assay; type: functional, cell-based; settings: NCI-H716, 72 h
[7] = system: MDA-MB-453; experiment: Antiproliferative activity against human MDA-MB-453 cells assessed as inhibition of cell growth measured after 72 hrs by CCK8 assay; type: functional, cell-based; settings: MDA-MB-453, 72 h
[8] = system: 4T1; experiment: Antiproliferative activity against mouse 4T1 cells assessed as inhibition of cell growth measured after 72 hrs by CCK8 assay; type: functional, cell-based; settings: 4T1, 72 h
[9] = system: NCI-H1299; experiment: Antiproliferative activity against human NCI-H1299 cells assessed as inhibition of cell growth measured after 72 hrs by CCK8 assay; type: functional, cell-based; settings: NCI-H1299, 72 h
[10] = system: OCI-Ly3; experiment: Antiproliferative activity against human OCILY3 cells assessed as inhibition of cell growth measured after 72 hrs by CCK8 assay; type: functional, cell-based; settings: OCI-Ly3, 72 h
[11] = system: MV4-11; experiment: Antiproliferative activity against human MV4-11 cells assessed as inhibition of cell growth measured after 72 hrs by CCK8 assay; type: functional, cell-based; settings: MV4-11, 72 h
[12] = system: MOLT-4; experiment: Antiproliferative activity against human MOLT-4 cells assessed as inhibition of cell growth measured after 72 hrs by CCK8 assay; type: functional, cell-based; settings: MOLT-4, 72 h
[13] = system: BaF3; experiment: Antiproliferative activity against mouse BaF3 cells expressing Bcr/Abl-T315I mutant assessed as inhibition of cell growth measured after 72 hrs by CCK8 assay; type: functional, cell-based; settings: BaF3, 72 h
[14] = system: Huh-7; experiment: Antiproliferative activity against human Huh-7 cells assessed as inhibition of cell growth measured after 72 hrs by CCK8 assay; type: functional, cell-based; settings: Huh-7, 72 h
[15] = Cytotoxicity against human HL7702 cells assessed as inhibition of cell growth measured after 72 hrs by CCK8 assay; type: toxicity, cell-based; settings: HL7702 (L02) cells
[16] = system: HCT-116; experiment: Antiproliferative activity against human HCT-116 cells assessed as inhibition of cell growth measured after 72 hrs by CCK8 assay; type: functional, cell-based; settings: HCT-116, 72 h
[17] = system: K562; experiment: Downregulation of HSP90 expression in human K562 cells at 11.1 to 900 nM incubated for 24 hrs by Western blotting analysis; type: functional, cell-based; settings: dose 11.1-900 nM
[18] = system: K562; experiment: Downregulation of Bcr-Abl expression in human K562 cells incubated for 24 hrs by Western blotting analysis; type: functional, cell-based; settings: dose 11.1-900 nM
[19] = system: K562; experiment: Downregulation of p38 expression in human K562 cells at 11.1 to 900 nM incubated for 24 hrs by Western blotting analysis; type: functional, cell-based; settings: dose 11.1-900 nM
[20] = system: K562; experiment: Downregulation of Mcl-1 expression in human K562 cells incubated for 24 hrs by Western blotting analysis; type: functional, cell-based; settings: dose 11.1-900 nM
[21] = system: K562; experiment: Downregulation of Myc expression in human K562 cells incubated for 24 hrs by Western blotting analysis; type: functional, cell-based; settings: dose 11.1-900 nM

Row | SMILES | IC50 [1] [nM] | IC50 [2] [nM] | IC50 [3] [nM] | further results
1 | COC(=O)C[C@H](Cc1cccc(NC(=O)OC(C)(C)C)c1)C(=O)O[C@@H]1C(OC)=C[C@]23CCCN2CCc2cc4c(cc2[C@H]13)OCO4 | 257 | 163 | 199 | –
2 | COC(=O)C[C@H](Cc1ccc(O)cc1)C(=O)O[C@@H]1C(OC)=C[C@]23CCCN2CCc2cc4c(cc2[C@H]13)OCO4 | 150 | 96 | 153 | –
3 | COC(=O)C[C@H](Cc1ccccc1OCc1ccccc1)C(=O)O[C@@H]1C(OC)=C[C@]23CCCN2CCc2cc4c(cc2[C@H]13)OCO4 | 725 | 482 | 569 | –
4 | COC(=O)C[C@H](Cc1ccccc1O)C(=O)O[C@@H]1C(OC)=C[C@]23CCCN2CCc2cc4c(cc2[C@H]13)OCO4 | 807 | 681 | 718 | –
5 | COC(=O)C[C@H](Cc1cccc(OCc2ccccc2)c1)C(=O)O[C@@H]1C(OC)=C[C@]23CCCN2CCc2cc4c(cc2[C@H]13)OCO4 | 248 | 152 | 202 | –
6 | COC(=O)C[C@H](CCC(C)(C)C)C(=O)O[C@@H]1C(OC)=C[C@]23CCCN2CCc2cc4c(cc2[C@H]13)OCO4 | 1220 | 368 | 907 | –
7 | COC(=O)C[C@H](Cc1cccc(Br)c1)C(=O)O[C@@H]1C(OC)=C[C@]23CCCN2CCc2cc4c(cc2[C@H]13)OCO4 | 214 | 203 | 235 | –
8 | COC(=O)C[C@H](Cc1ccccc1Br)C(=O)O[C@@H]1C(OC)=C[C@]23CCCN2CCc2cc4c(cc2[C@H]13)OCO4 | 700 | 464 | 535 | –
9 | COC1=C[C@]23CCCN2CCc2cc4c(cc2[C@@H]3[C@@H]1O)OCO4 [CEPHALOTAXINE] | > 30000 | > 30000 | > 30000 | –
10 | COC(=O)C[C@H](Cc1ccc(NC(=O)OC(C)(C)C)cc1)C(=O)O[C@@H]1C(OC)=C[C@]23CCCN2CCc2cc4c(cc2[C@H]13)OCO4 | 130 | 149 | 155 | –
11 | COC(=O)C[C@](O)(CCCC(C)(C)O)C(=O)O[C@@H]1C(OC)=C[C@]23CCCN2CCc2cc4c(cc2[C@H]13)OCO4 [OMACETAXINE MEPESUCCINATE] | 12 | 14 | 13 | IC50 [4]: 22 nM; IC50 [5]: 4 nM; IC50 [6]: 65 nM; IC50 [7]: 21 nM; IC50 [8]: 60 nM; IC50 [9]: 22 nM; IC50 [10]: 5 nM; IC50 [11]: 5 nM; IC50 [12]: 7 nM; IC50 [13]: 81 nM; IC50 [14]: 40 nM; IC50 at 72 h [15]: 64 nM; IC50 [16]: 13 nM
12 | CCOC(=O)C[C@H](Cc1ccc(OCc2ccccc2)cc1)C(=O)O[C@@H]1C(OC)=C[C@]23CCCN2CCc2cc4c(cc2[C@H]13)OCO4 | 1050 | 693 | 890 | –
13 | COC(=O)C[C@H](Cc1ccc(Br)cc1)C(=O)O[C@@H]1C(OC)=C[C@]23CCCN2CCc2cc4c(cc2[C@H]13)OCO4 | 929 | 553 | 701 | –
14 | COC(=O)C[C@H](Cc1cccc(F)c1)C(=O)O[C@@H]1C(OC)=C[C@]23CCCN2CCc2cc4c(cc2[C@H]13)OCO4 | 174 | 123 | 122 | –
15 | COC(=O)C[C@@H](Cc1ccc(F)cc1)C(=O)O[C@@H]1C(OC)=C[C@]23CCCN2CCc2cc4c(cc2[C@H]13)OCO4 | 673 | 373 | 597 | –
16 | CCOC(=O)C[C@H](Cc1ccc(O)cc1)C(=O)O[C@@H]1C(OC)=C[C@]23CCCN2CCc2cc4c(cc2[C@H]13)OCO4 | 834 | 572 | 576 | –
17 | COC(=O)C[C@@H](Cc1ccccc1)C(=O)O[C@@H]1C(OC)=C[C@]23CCCN2CCc2cc4c(cc2[C@H]13)OCO4 | 725 | 404 | 548 | –
18 | COC(=O)C[C@H](Cc1ccc2ccccc2c1)C(=O)O[C@@H]1C(OC)=C[C@]23CCCN2CCc2cc4c(cc2[C@H]13)OCO4 | 441 | 344 | 396 | –
19 | COC(=O)C[C@H](Cc1ccc(OC(C)=O)cc1)C(=O)O[C@@H]1C(OC)=C[C@]23CCCN2CCc2cc4c(cc2[C@H]13)OCO4 | 204 | 121 | 142 | –
20 | COC(=O)C[C@H](C)C(=O)O[C@@H]1C(OC)=C[C@]23CCCN2CCc2cc4c(cc2[C@H]13)OCO4 | 13800 | 14500 | 18000 | –
21 | COC(=O)C[C@@H](Cc1cccs1)C(=O)O[C@@H]1C(OC)=C[C@]23CCCN2CCc2cc4c(cc2[C@H]13)OCO4 | 277 | 186 | 246 | –
22 | COC(=O)C[C@H](Cc1cccc(O)c1)C(=O)O[C@@H]1C(OC)=C[C@]23CCCN2CCc2cc4c(cc2[C@H]13)OCO4 | 176 | 139 | 184 | –
23 | Cc1ccc(NC(=O)c2ccc(CN3CCN(C)CC3)cc2)cc1Nc1nccc(-c2cccnc2)n1 [IMATINIB] | 16600 | 135 | 28500 | –
24 | COC(=O)C[C@H](Cc1ccc(OCc2ccccc2)cc1)C(=O)O[C@@H]1C(OC)=C[C@]23CCCN2CCc2cc4c(cc2[C@H]13)OCO4 | 174 | 103 | 151 | –
25 | COC(=O)C[C@H](Cc1cccc(N)c1)C(=O)O[C@@H]1C(OC)=C[C@]23CCCN2CCc2cc4c(cc2[C@H]13)OCO4 | 213 | 121 | 145 | –
26 | COC(=O)C[C@H](Cc1ccc(F)cc1)C(=O)O[C@@H]1C(OC)=C[C@]23CCCN2CCc2cc4c(cc2[C@H]13)OCO4 | 288 | 207 | 266 | –
27 | COC(=O)C[C@H](Cc1ccccc1)C(=O)O[C@@H]1C(OC)=C[C@]23CCCN2CCc2cc4c(cc2[C@H]13)OCO4 | 170 | 96 | 155 | –
28 | Cc1nc(Nc2ncc(C(=O)Nc3c(C)cccc3Cl)s2)cc(N2CCN(CCO)CC2)n1 [DASATINIB] | 15000 | 1 | 15000 | –
29 | COC(=O)C[C@H](Cc1ccc(N)cc1)C(=O)O[C@@H]1C(OC)=C[C@]23CCCN2CCc2cc4c(cc2[C@H]13)OCO4 | 121 | 112 | 130 | IC50 [4]: 11900 nM; Activity [17]: inactive; IC50 [5]: 38 nM; Activity [18]: Dose-Dependent Effect; IC50 [6]: 107 nM; IC50 [7]: 70 nM; IC50 [8]: 296 nM; IC50 [9]: 173 nM; IC50 [10]: 58 nM; IC50 [11]: 98 nM; IC50 [12]: 60 nM; IC50 [13]: 246 nM; Activity [19]: inactive; IC50 [14]: 216 nM; Activity [20]: Dose-Dependent Effect; Activity [21]: Dose-Dependent Effect; IC50 at 72 h [15]: 494 nM; IC50 [16]: 107 nM
